Source: patent US20240279294A1, “p53 VARIANT WITH IMPROVED LIQUID-LIQUID PHASE SEPARATION ABILITY AND ACTIVITY AND USE THEREOF” (Zhejiang University, priority 2023, published 2024)

Key:
U-2OS cells = experiment: cell viability (CCK8), protein delivery combined with TAS-120 or IWR-1, U-2OS; format: cell-based, human; settings: LLPSE-p53 (SEQ ID NO.3) protein 0.5-2 μM 24 h, then inhibitor 5-20 μM 24 h; compared with inhibitor plus buffer
Description: The above system was sterilized with a 0.22 μm filter membrane. • 4. The complete medium in the well plate was sucked and discarded, and the above protein delivery system was added, the plate was then placed in an incubator for culture for 24 h. • 5. […] Cell viability was measured by a CCK8 method and with a M5 microplate reader. • 7. Graphpad5 software was used for data processing and one-way ANOVA method was used for statistical analysis.

CDKN1A = CDKN1A luciferase reporter assay in H1299 cells; format: cell-based, human; settings: H1299, plasmid co-transfected with CDKN1A reporter gene plasmid, 24 h; compared with WT-p53
Description: (§1) Implementation was made as follows: • 1. Proper number of cells were seeded into a 96-well cell culture plate, plasmids and CDKN1A reporter gene plasmid were co-transformed when cell density reached 60-70%, the cells were then cultured in an incubator for 24 h. • 2. A chemiluminescence test was carried out with a luciferase reporting system test kit produced by Promega and a M5 microplate reader. • 3. Graphpad5 software was used for data processing and analysis.
as §1, with “chemiluminescence assay” for “chemiluminescence test”, “with the” for “with a”, “system” for “system test”
Specific implementation steps can refer to Example 8.

| Molecule | killing of U-2OS cells by the inhibitor when combined with LLPSE-p53 protein (U-2OS cells) | transactivation activity on CDKN1A (CDKN1A) |
| --- | --- | --- |
| O=C(Nc1cccc2cccnc12)c1ccc(N2C(=O)[C@@H]3[C@H](C2=O)[C@@H]2C=C[C@H]3C2)cc1 [IWR-1] | significantly promotes TAS-120 or IWR-1 to kill U-2OS cells | – |
| LLPSE-p53 (SEQ ID NO.7): p53 in rat with added sequence (including linker) GGASGHHHHHHHHGGAGGGGRRRRRRKK (protein) MEDSQSDMSIELPLSQETFSCLWKLLPPDDILPTTATGSPNSMEDLFLPQDVAELLEGPEEALQVSAPAAQEPGTEAPAPVAPASATPWPLSSSVPSQKTYQGNYGFHLGFLQSGTAKSVMCTYSISLNKLFCQLAKTCPVQLWVTSTPPPGTRVRAMAIYKKSQHMTEVVRRCPHHERCSDGDGLAPPQHLIRVEGNPYAEYLDDRQTFRHSVVVPYEPPEVGSDYTTIHYKYMCNSSCMGGMNRRPILTIITLEDSSGNLLGRDSFEVRVCACPGRDRRTEEENFRKKEEHCPELPPGSAKRALPTSTSSSPQQKKKPLDGEYFTLKIRGRERFEMFRELNEALELKDARAAEESGDSRAHSSYPKTKKGQSTSRHKKPMIKKVGPDSDGGASGHHHHHHHHGGAGGGGRRRRRRKK | – | significantly increases the transactivation activity of CDKN1A |
